Measured values reported in US12697316B2, “Combination therapy with acetyl-leucine and miglustat” (INTRABIO LTD., priority 2019, dated 2026).

How the values were obtained:
Npc1^−/− mice = test: Survival / life span of Npc1−/− mice; format: in vivo, mouse
Protocol: BALBc/NPC ^h and Sandhoff mice were bred as heterozygotes to generate affected mice (Npc1^−/−, Hexb^−/−) and controls (Npc^+/+, Hexb^+/+). The mice were housed under non-sterile conditions, with food and water available ad libitum. All experiments were conducted using protocols approved by the UK Home Office Animal Scientific Procedures Act, 1986.
ADLL and enantiomers (ADLL: Molekula #73891210, ALL: Sigma Aldrich #441511, ADL: Sigma #A0876) were administered as dry admix in powdered mouse diet (PicoLab Rodent Diet 20/5053, LabDiet) at a dose of 0.1 g/kg/day for in vivo studies. Treatment groups for in vivo study consisted of at least 5 mice per group. In vitro studies were conducted with each compound dissolved in PBS to generate a 50 mM stock solution and diluted to a 1 mM working concentration in media (DMEM High Glucose-Gibco #10566016).
Miglustat (Monsanto/Oxford GlycoSciences) was administered as a dry solid mixed with powdered chow (600 mg/kg/day) (see above) alone or in combination with ADLL.
The weight and activity of each mouse was recorded weekly until reaching the humane endpoint (defined as a loss of 1 g body weight within 24 h). Gait analysis was performed using CatWalk 10.5 system (Noldus) according to the manufacturer's instructions and five runs were recorded per animal at each time point. The camera was set to 40 cm below the walkway, the walkway was approximately 4 cm wide, and detection settings set to camera gain 14.05 and green intensity 0.12. Motor function was measured using an accelerating NG Rota Rod for mice (Ugo Basile) starting from 1 rpm to 10 rpm, accelerating every 30 seconds by one rpm. Bar crossing experiments on Sandhoff animals were conducted to measure motor strength and coordination. The apparatus used was modified from published studies. […] Latency to cross or fall from the bar was scored, with 120 sec, maximum, to termination of each trial. […]

[1] = test system: GM2 gangliosidosis patients; test: Observational case series in GM2 gangliosidosis patients; format: in vivo, human; conditions: three GM2 gangliosidosis patients
Protocol: Observational studies in GM2 gangliosidosis Patients: In a prospective observational case series in three patients with genetically proven GM2 gangliosidoses (2 patients with Tay-Sachs disease, 1 patient with Sandhoff disease) the symptomatic effects of ADLL was evaluated. Patients were treated with 0.1 g per kg body weight per day, for at least four weeks and the clinical effects determined using the Scale for the Assessment and Severity of Ataxia (SARA), the 8-meter walk test (8MWT) and the Montreal Cognitive Assessment (MoCA). Consent from all participants was obtained.
A patient with a genetically confirmed diagnosis of Tay-Sachs disease presented with dysarthrophonia, tremor, ataxia of stance and gait, paraparesis, and muscular atrophy. Prior to treatment, the patient required the support of both a caregiver on one side and a wall on the other in order to walk down a corridor. The patient was receiving sodium-valproate (500 mg/d), lithium (450 mg/d), and risperidone (3 mg/d) (medications for clinically diagnosed bipolar disorder), and continued to do so during treatment with N-Acetyl-DL-Leucine. The patient was also receiving physiotherapy, ergotherapy, and logotherapy twice a week.
A patient with a genetically confirmed diagnosis of Tay-Sachs disease presented with ataxia of stance and gait, fine motor impairment, paraparesis of lower extremities and muscular atrophy. They were receiving physiotherapy, ergotherapy and logotherapy and continued to do so during treatment with N-Acetyl-DL-Leucine.
A patient suffering from Sandhoff disease, with muscle hypotrophy, epileptic cramps (tonic-clonic, about 10 seconds, self-limiting), disordered ocular movement and anarthria. Their daily activities were very limited, being unable to eat, wash, or dress themself. They were receiving levetiracetam (1 g/d), lamotrigine (100 mg/d), omeprazole (20 mg/d), and miglustat (300 mg/d), in addition to physiotherapy, ergotherapy and logotherapy, and continued to do so during treatment with N-Acetyl-DL-Leucine.

[2] = 0.1 g per kg body weight per day, baseline vs one month on medication

With `CC(=O)NC(CC(C)C)C(=O)O` (racemic) [ADLL, N-acetyl-DL-leucine] the median survival (Npc1^−/− mice; Npc1−/− mice, ADLL 0.1 g/kg/day, miglustat 600 mg/kg/day in chow, untreated Npc1−/− 87 days) was 91 days, the “improvement reported by patients and caregivers” value [1] was “subjective improvement” and the “mean improvement of the 8-M-Walking-Test (8MWT)” value [1, 2] was 17.8%. The “mean improvement of the Montreal Cognitive Assessment (MoCA)” value [1, 2] was 42% and the “mean improvement of the Scale for Assessment and Rating of Ataxia (SARA)” value [1, 2] was 20.3%.

In the case of `CC(=O)N[C@H](CC(C)C)C(=O)O` [ADL, N-acetyl-D-leucine], the “increase in life span” value (Npc1^−/− mice; Npc1−/− mice treated from weaning, 0.1 g/kg/day, relative to untreated Npc1−/−) is reported as “not changed”.
